Source: patent publication US20180207228A1, “PEPTIDE COMBINATIONS AND USES THEREOF FOR TREATING GRASS ALLERGY” (ALK-Abelló A/S, priority 2015, published 2018)
Where no end group is shown, it is not given here.

Test system: grass pollen allergic donor derived TCL-03 lines
Experiment: Extended cross-reactivity study, proliferation on TCL03 DK1+DK2 (Study XR2), scoring
Type: cell-based, human
Parameters: Cross-reactivity score: scale not given here
Conditions: for cross-reactivity score of homologue / cross-reactivity of homologue: 2 μg/ml, 20 donors; for cross-reactivity score of homologue: score 0 to 7
[1] = homologue of peptide 238 (Phl p 5), Table 48
[2] = homologue of peptide 207 (Phl p 1), Table 43
[3] = homologue of peptide 211 (Phl p 1), Table 44
[4] = homologue of peptide 285, Table 50
[5] = homologue of peptide 206 (Phl p 1), Table 42
[6] = homologue of peptide 217 (Phl p 3), Table 45
[7] = homologue of peptide 205 (Phl p 1), Table 41

## STGGAYQSYKFIPALEAAVK-OH [compound 406]
[1]
  Cross-reactivity score: 4

## CC[C@H](C)[C@H](NC(=O)[C@H](Cc1ccccc1)NC(=O)[C@H](CCCCN)NC(=O)[C@H](Cc1ccc(O)cc1)NC(=O)[C@@H](NC(=O)[C@H](CCC(=O)O)NC(=O)[C@H](Cc1ccc(O)cc1)NC(=O)[C@H](C)NC(=O)CNC(=O)[C@H](C)NC(=O)[C@@H](NC(=O)[C@@H](N)CO)[C@@H](C)O)[C@@H](C)O)C(=O)N1CCC[C@H]1C(=O)N[C@@H](CO)C(=O)N[C@@H](CC(C)C)C(=O)N[C@@H](CCC(=O)O)C(=O)N[C@@H](C)C(=O)N[C@@H](C)C(=O)N[C@H](C(=O)N[C@@H](CCCCN)C(=O)O)C(C)C [compound 363]
[1]
  Cross-reactivity score: 5

## CC[C@H](C)[C@H](NC(=O)[C@H](Cc1ccccc1)NC(=O)[C@H](CCCCN)NC(=O)[C@H](Cc1ccc(O)cc1)NC(=O)[C@@H](NC(=O)[C@H](CCC(=O)O)NC(=O)[C@H](Cc1ccc(O)cc1)NC(=O)[C@H](C)NC(=O)CNC(=O)CNC(=O)[C@@H](NC(=O)[C@@H](N)CO)[C@@H](C)O)[C@@H](C)O)C(=O)N1CCC[C@H]1C(=O)N[C@@H](CO)C(=O)N[C@@H](CC(C)C)C(=O)N[C@@H](CCC(=O)O)C(=O)N[C@@H](C)C(=O)N[C@@H](C)C(=O)N[C@H](C(=O)N[C@@H](CCCCN)C(=O)O)C(C)C [compound 405]
[1]
  Cross-reactivity score: 5

## AGELTLQFRRVKSKYPSGTK-OH [compound 318]
[2]
  Cross-reactivity score: 0

## WGAIWRKDSDKPIKFPVTVQ-OH [compound 396]
[3]
  Cross-reactivity score: 0.5

## AYQSYKFIPALEAAVKQSYA-OH [compound 416]
  cross-reactivity score of homologue: 1
[4]
  Cross-reactivity score: 1

## WGAIWRIDPPKPLKGPFTIR-OH [compound 391]
[3]
  Cross-reactivity score: 0.5

## VDKIDAAYKIAATAANAAPA-OH [compound 399]
Homologue of peptide 235 (Phl p 5), Table 53
  Cross-reactivity score: 5

## VDKIDAAYKIAATAANAAPAN-OH [compound 417]
Homologue of peptide 286 (Phl p 5), Table 52
  Cross-reactivity score: 7

## GLNDKLRHYGIFDLEFRRVR-OH [compound 378]
[5]
  Cross-reactivity score: 0

## AYESYKFIPTLEAAVKQAYA-OH [compound 413]
[4]
  Cross-reactivity score: 6

## GEEEKLRKAGIIDMKFRRVK-OH [compound 381]
[5]
  Cross-reactivity score: 0.5

## WGAIWRVDTPDKLTGPFTVR-OH [compound 392]
  cross-reactivity of homologue: considerable cross-reactivity
[3]
  Cross-reactivity score: 5

## GSDPKKLVLDIKYTRPGDTL-OH [compound 397]
[6]
  Cross-reactivity score: 1

## GEEDKLRKAGELMLQFRRVK-OH [compound 376]
[5]
  Cross-reactivity score: 0

## AGELELKFRRVKSEYPEGTK-OH [compound 385]
[2]
  Cross-reactivity score: 1

## CC[C@H](C)[C@H](NC(=O)[C@H](Cc1ccccc1)NC(=O)[C@@H](N)CCCCN)C(=O)N1CCC[C@H]1C(=O)N[C@@H](C)C(=O)N[C@@H](CC(C)C)C(=O)N[C@@H](CCC(=O)O)C(=O)N[C@@H](C)C(=O)N[C@@H](C)C(=O)N[C@H](C(=O)N[C@@H](CCCCN)C(=O)N[C@@H](CCC(N)=O)C(=O)N[C@@H](CO)C(=O)N[C@@H](Cc1ccc(O)cc1)C(=O)N[C@@H](C)C(=O)N[C@@H](C)C(=O)N[C@H](C(=O)N[C@H](C(=O)N[C@@H](C)C(=O)N[C@H](C(=O)O)[C@@H](C)O)C(C)C)[C@@H](C)O)C(C)C [compound 409]
Homologue of peptide 239 (Phl p 5), Table 49
  Cross-reactivity score: 7

## YHFDLSGHAFGSMAKKGEEE-OH [compound 373]
  cross-reactivity of homologue: very high reactivity
[7]
  Cross-reactivity score: 6

## YGIFDLEFRRVRSKYQGGQK-OH [compound 384]
[2]
  Cross-reactivity score: 0.5

## YHFDLAGTAFGAMAKKGEEE-OH [compound 375]
  cross-reactivity of homologue: very high reactivity
[7]
  Cross-reactivity score: 7

## GEEENVRGAGELELQFRRVK-OH [compound 379]
[5]
  Cross-reactivity score: 1

## STGGAYESYKFIPTLEAAVK-OH [compound 404]
[1]
  Cross-reactivity score: 5

## TDMNYEQIAAYHFDLAGTAF-OH [compound 370]
Homologue of peptide 204 (Phl p 1), Table 40
  Cross-reactivity score: 2

## CC[C@H](C)[C@H](NC(=O)[C@H](CC(N)=O)NC(=O)[C@H](CC(C)C)NC(=O)[C@@H](NC(=O)[C@H](CC(C)C)NC(=O)[C@@H](NC(=O)[C@H](CCCCN)NC(=O)[C@H](C)NC(=O)[C@H](CC(=O)O)NC(=O)[C@H](CO)NC(=O)CN)[C@@H](C)O)C(C)C)C(=O)N[C@@H](CCCCN)C(=O)N[C@@H](Cc1ccc(O)cc1)C(=O)N[C@H](C(=O)N[C@@H](CCCNC(=N)N)C(=O)N1CCC[C@H]1C(=O)NCC(=O)N[C@@H](CC(=O)O)C(=O)N[C@H](C(=O)N[C@@H](CC(C)C)C(=O)O)[C@@H](C)O)[C@@H](C)O [compound 328]
  cross-reactivity of homologue: considerable cross-reactivity
[6]
  Cross-reactivity score: 5

## AGELELQFRRVKSKYPEGTK-OH [compound 382]
  cross-reactivity of homologue: considerable cross-reactivity
[2]
  Cross-reactivity score: 3

## YHFDLSGKAFGAMAKKGEEQ-OH [compound 374]
[7]
  Cross-reactivity score: 3

## WGAVWRIDTPDKLTGPFTVR-OH [compound 393]
  cross-reactivity of homologue: considerable cross-reactivity
[3]
  Cross-reactivity score: 4

## GEEQKLRSAGELELKFRRVK-OH [compound 380]
[5]
  Cross-reactivity score: 0.5

## AGELELQFRRVKSKYPDGTK-OH [compound 383]
  cross-reactivity of homologue: considerable cross-reactivity
[2]
  Cross-reactivity score: 6

## WGAIWRMDTPKALVPPFSIR-OH [compound 394]
[3]
  Cross-reactivity score: 1

## YHFDLSGHAFGSMAKKGEEQ-OH [compound 372]
  cross-reactivity of homologue: very high reactivity
[7]
  Cross-reactivity score: 7

## GEEQKLRSAGELELQFRRVK-OH [compound 377]
[5]
  Cross-reactivity score: 2

## WGSIWRVDTPDKLTGPFTVR-OH [compound 395]
  cross-reactivity of homologue: considerable cross-reactivity
[3]
  Cross-reactivity score: 3

## YHFDLSGKAFGAMAKKGEED-OH [compound 371]
[7]
  Cross-reactivity score: 2

## ERDFLTSLTKDIPPRQLYAK-OH [compound 398]
  cross-reactivity score of homologue: 1
Homologue of peptide 222 (Phl p 4), Table 46
  Cross-reactivity score: 1
